Entries after “also recorded” stand apart in the source; their conditions may differ.
What was measured:
TGFβ receptor alk5 = molecular target: T1, TGFβ receptor alk5 (Homo sapiens, UniProt P36897); details: compared with Dorsomorphin and LDN; cited from earlier work
T1 sequence (P36897 34-503): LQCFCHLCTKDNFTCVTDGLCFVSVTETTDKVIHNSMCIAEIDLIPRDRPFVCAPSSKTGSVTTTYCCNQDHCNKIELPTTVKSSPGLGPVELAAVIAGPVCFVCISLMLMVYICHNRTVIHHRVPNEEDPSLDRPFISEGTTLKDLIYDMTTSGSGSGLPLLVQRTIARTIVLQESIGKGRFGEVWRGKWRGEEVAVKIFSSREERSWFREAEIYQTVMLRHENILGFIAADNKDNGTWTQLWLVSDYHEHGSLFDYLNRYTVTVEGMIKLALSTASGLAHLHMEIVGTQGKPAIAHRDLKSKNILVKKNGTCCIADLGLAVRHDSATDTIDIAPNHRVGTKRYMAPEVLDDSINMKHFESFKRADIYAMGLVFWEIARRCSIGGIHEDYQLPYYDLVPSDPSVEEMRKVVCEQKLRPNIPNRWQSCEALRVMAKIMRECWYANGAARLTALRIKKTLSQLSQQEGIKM

[1] = test system: phosphorylated Smad 1/5/8; experiment: Western blot for phosphorylated Smad 1/5/8; type: cell-based
Description: (§1) Western Blot Analysis. Total cellular protein was prepared using RIPA buffer containing a protease inhibitor cocktail and protein concentration was measured using the BCA assay as described. In brief, protein was analyzed by SDS-PAGE, transferred to nitrocellulose (Schleicher and Schuell, Keene, N.H.). After blocking, the blots were incubated overnight at 4° C. with the appropriate primary antibody in Tris-buffered saline with 1% Tween (TBST) and 5% non-fat milk. Secondary antibodies were applied for 1 hour at room temperature. Specific proteins were detected using the enhanced chemiluminescence system (Amersham, Arlington Heights, Ill.). The primary antibodies that were used were rabbit monoclonal anti-pSmad 1/5/8 (Cell signaling Technology, Danvers Mass.) rabbit anti-actin, an affinity isolated antigen specific antibody (Sigma, Saint Louis, Mo.), rabbit monoclonal anti-Id1 and rabbit monoclonal anti-Id3 (Calbioreagents, San Mateo, Calif.).

[2] = molecular target: platelet-derived growth factor receptor-β (Homo sapiens, UniProt P09619); details: compared with Dorsomorphin and LDN; cited from earlier work
H1299 cells [3] = experiment: Amine-reactive fluorescent dye (LIVE/DEAD) flow cytometry; type: cell-based
Description: Cell death was also determined using the LIVE/DEAD fixable dead cell stain kit as per manufacturer's instructions (Life Technologies, L-23101). This assay employs an amine-reactive fluorescent dye, which in compromised membranes the dye reacts with free amines on the cell interior in dead cells. H1299 cells were treated with DMH2 for 48 hours and the percentage of dead cells then detected by flow cytometry.

Id1 and Id3 protein = experiment: Western blot for Id1 and Id3; type: cell-based
Description: as §1

[4] = test system: constitutively active alk6 (ca-alk6); experiment: BRE-luciferase with constitutively active alk6 in H1299 cells; type: cell-based; details: 1 μM antagonist
Description: (§2) To assess the effects of antagonists on a specific type I BMP receptor, 2 μg of constitutively active ca-alk3 and ca-alk6 expression vectors were co-transfected with the BRE-luciferase reporter into H1299 cells with Nucleofector II. Control cells were co-transfected with the pcDNA3 expression vector. After 48 hours the cells were treated with DMSO or a BMP receptor antagonist for 48 hours and luminescence was measured.

[5] = molecular target: T2, constitutively active alk3 (ca-alk3) (Homo sapiens, UniProt P36894, Q233D); experiment: BRE-luciferase with constitutively active alk3 in H1299 cells; type: cell-based; details: 1 μM antagonist
T2 construct: expressed in transfected cells; host or cells: H1299
Description: as §2

H1299 cells [6] = experiment: Clonogenic growth assay; type: cell-based; details: 1 μM, 2 weeks
Description: (§3) Clonigenic Growth Assay. A549 and H1299 cells were plated into 6 well plates with 500 cells per well. The next day the cells were treated with DMSO or a BMP receptor antagonist for 2 weeks. The colonies were stained with Diff-Quick (IMEB Inc. San Marcos, Calif.) and the total number of colonies per well counted.

A549 cells = experiment: Clonogenic growth assay; type: cell-based; details: 1 μM, 2 weeks
Description: as §3

H1299 cells [7] = experiment: Trypan blue cell death counts; type: cell-based; details: 4 days
VEGF II = VEGF II (Homo sapiens, UniProt P35968); details: compared with Dorsomorphin and LDN; cited from earlier work
[8] = test system: Id1, Id2, and Id3 expression; experiment: Quantitative RT-PCR for Id family members; type: cell-based; details: A549 and H1299 cell lines; 10 μM Dorsomorphin, 1 μM DMH1 or DMH2; 48 hours
Description: Quantification of Gene Expression. RNA was extracted using the RNeasy kit as per the manufacturer's instructions (Qiagen, Valencia, Calif.). DNAase was used to remove any DNA contamination. cDNA was generated using Advantage RT for PCR kit (BD BiosciencesClontech, Palo Alto, Calif.). Quantitative PCR was performed with the Stratagene Mx3005p (Agilent Technologies) and predesigned validated Taq-Man gene expression assays according to the manufacturer's specifications (Applied Biosystems, Foster City, Calif.). Reference numbers used are: GAPDH (Hs99999905_m1), ACVRL1 (alk1) (Hs00163543_m1), ACVR1A (alk2) (Hs00153836_m1), BMR1A (alk3) (Hs00831730_s1), BMPR1B (alk6) (Hs00176144_m1), Id1 (Hs00357821_g1), Id2 (Hs00747379_m1), and Id3 (Hs00171409-m1). Negative control included all reagents except cDNA. Expression was normalized to GAPDH using the formula […].

Smad 1/5/8 activity = experiment: BRE-luciferase reporter assay; type: cell-based; details: H1299 cells; 10 μM Dorsomorphin or 1 μM DMH1, DMH2, LDN; 48 hours; vs DMSO
Description: Luciferase Assays. 10^6 H1299 cells were transfected with 2 μg of BRE-luciferace plasmid using a Nucleofector II. […] Cells were lysed with luciferase lysis buffer (Promega). Samples were added to luciferase assay substrate (Promega) and luminsescence measured by the TD-20/20 Luminometer (Turner Designs/Turner BioSystems, Sunnyvale, Calif.). Control samples included luciferase assay substrate alone and luciferase assay substrate plus 1× reporter lysis buffer.

AMP kinase = details: compared with Dorsomorphin and LDN; cited from earlier work

T2 sequence (P36894 24-532 Q233D): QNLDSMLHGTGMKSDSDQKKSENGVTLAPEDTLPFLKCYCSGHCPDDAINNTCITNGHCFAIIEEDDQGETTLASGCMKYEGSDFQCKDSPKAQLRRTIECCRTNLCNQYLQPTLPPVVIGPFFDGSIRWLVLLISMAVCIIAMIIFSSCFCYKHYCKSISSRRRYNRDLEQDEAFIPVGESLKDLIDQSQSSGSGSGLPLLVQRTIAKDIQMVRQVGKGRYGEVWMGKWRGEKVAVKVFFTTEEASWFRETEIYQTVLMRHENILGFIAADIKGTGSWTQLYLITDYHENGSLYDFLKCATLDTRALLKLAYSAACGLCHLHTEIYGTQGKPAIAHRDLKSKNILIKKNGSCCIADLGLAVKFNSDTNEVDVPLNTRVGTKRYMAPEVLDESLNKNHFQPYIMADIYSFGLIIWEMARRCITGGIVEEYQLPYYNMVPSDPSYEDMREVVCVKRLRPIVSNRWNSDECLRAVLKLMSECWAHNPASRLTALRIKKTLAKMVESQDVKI
Sequence of platelet-derived growth factor receptor-β (P09619 33-1106, species assumed): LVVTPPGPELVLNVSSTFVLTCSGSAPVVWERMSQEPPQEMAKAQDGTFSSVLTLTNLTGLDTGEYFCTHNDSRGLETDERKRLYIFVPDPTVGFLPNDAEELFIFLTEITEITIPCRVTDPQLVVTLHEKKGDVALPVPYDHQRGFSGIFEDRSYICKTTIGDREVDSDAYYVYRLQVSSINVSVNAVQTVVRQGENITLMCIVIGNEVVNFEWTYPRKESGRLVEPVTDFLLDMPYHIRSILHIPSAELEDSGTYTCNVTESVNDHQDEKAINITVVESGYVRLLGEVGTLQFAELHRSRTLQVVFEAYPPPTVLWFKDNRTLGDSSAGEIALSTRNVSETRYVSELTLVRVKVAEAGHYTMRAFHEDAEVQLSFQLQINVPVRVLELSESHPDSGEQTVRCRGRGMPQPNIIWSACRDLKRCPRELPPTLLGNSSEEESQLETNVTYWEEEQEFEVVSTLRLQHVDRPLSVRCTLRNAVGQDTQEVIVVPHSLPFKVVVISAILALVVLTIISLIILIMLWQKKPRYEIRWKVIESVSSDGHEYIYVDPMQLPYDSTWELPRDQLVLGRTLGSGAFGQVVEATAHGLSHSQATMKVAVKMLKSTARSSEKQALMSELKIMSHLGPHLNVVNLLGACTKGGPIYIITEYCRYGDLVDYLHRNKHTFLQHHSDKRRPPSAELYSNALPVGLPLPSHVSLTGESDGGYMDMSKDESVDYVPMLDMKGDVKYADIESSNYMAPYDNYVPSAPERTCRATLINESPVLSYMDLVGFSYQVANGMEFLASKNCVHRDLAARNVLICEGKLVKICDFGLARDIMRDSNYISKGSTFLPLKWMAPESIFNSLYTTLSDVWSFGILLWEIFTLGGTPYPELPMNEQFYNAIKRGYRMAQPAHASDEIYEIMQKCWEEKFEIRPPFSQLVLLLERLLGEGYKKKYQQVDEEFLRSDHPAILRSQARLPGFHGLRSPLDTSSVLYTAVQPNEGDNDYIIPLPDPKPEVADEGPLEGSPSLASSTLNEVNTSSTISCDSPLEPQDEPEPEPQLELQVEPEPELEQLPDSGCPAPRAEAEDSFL
Sequence of VEGF II (P35968 20-1356): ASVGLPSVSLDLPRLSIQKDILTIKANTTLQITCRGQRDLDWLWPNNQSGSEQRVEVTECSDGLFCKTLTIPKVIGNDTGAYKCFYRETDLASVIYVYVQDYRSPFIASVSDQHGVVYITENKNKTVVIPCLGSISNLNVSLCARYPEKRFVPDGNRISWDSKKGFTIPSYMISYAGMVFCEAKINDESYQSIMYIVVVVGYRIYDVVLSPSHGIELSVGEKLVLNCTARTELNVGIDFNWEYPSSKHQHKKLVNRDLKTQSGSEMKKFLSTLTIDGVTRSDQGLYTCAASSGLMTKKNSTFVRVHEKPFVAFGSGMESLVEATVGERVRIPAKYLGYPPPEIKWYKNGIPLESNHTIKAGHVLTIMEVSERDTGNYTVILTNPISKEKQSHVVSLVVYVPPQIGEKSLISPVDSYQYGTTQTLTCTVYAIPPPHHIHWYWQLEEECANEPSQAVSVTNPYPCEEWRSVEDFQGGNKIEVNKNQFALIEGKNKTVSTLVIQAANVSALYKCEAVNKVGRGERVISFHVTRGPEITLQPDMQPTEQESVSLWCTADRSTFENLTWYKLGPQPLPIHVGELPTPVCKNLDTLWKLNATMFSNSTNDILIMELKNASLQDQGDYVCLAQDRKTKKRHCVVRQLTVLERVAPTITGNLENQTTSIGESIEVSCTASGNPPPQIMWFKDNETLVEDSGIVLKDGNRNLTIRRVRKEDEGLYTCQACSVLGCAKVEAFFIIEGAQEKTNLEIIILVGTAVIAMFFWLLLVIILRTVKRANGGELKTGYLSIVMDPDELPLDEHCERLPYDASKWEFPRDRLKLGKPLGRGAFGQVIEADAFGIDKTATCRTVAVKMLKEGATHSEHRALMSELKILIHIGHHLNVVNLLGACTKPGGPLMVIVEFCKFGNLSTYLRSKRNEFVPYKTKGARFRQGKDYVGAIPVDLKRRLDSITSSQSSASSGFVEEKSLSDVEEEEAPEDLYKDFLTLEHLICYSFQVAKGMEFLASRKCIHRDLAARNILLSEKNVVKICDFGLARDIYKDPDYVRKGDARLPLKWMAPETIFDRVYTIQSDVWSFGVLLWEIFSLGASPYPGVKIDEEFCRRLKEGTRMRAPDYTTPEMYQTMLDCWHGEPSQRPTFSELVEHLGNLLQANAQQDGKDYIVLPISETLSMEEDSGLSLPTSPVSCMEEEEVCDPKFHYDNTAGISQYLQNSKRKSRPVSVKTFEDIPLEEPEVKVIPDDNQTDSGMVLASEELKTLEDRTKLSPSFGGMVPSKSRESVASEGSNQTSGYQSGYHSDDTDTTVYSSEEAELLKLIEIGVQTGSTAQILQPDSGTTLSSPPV

Smad 1/5/8 activity (BRE-luciferase activity) (Smad 1/5/8 activity): significant decrease
Structure (SMILES): CN(C)CCCOc1ccc(-c2cnc3c(-c4ccnc5ccccc45)cnn3c2)cc1 [DMH2]
activity for TGFβ receptor alk5 (comparison) (TGFβ receptor alk5): less activity
phosphorylated Smad 1/5/8 expression ([1]; A549 cells): decreases
level of phosphorylated Smad 1/5/8 expression ([1]; lung cancer cell lines (H1299, A549)): decreased
activity for platelet-derived growth factor receptor-β (comparison) [2]: less activity
cell death (amine-reactive fluorescent dye) (H1299 cells [3]): induced cell death
protein levels of Id1 and Id3 (Id1 and Id3 protein; A549 and H1299 cells): decrease
reduction of Id1 protein expression (comparison) (Id1 and Id3 protein; H1299 and A549 cells, 1 μM): greater reduction of Id1 in H1299 cells compared to A549 cells; also recorded: greater reduction of Id1 protein expression than DMH1
inhibition of ca-alk6 activity (BRE-luciferase) [4]: more inhibition of alk6 than DMH1 and LDN
inhibition of ca-alk3 activity (BRE-luciferase) [5]: greater reduction of alk3 activity than DMH1 and LDN; also recorded: significant inhibition
clonogenic growth (H1299 cells [6]): inhibited more by DMH2 and LDN than DMH1
clonogenic growth (A549 cells): inhibited more by DMH2 and LDN than DMH1
percentage of dead cells (trypan blue) (H1299 cells [7]; H1299 cultured in SFM, 1 μM, compared with DMEM 5% FCS): even higher
cell death (percentage of dead cells, trypan blue) (H1299 cells [7]; H1299 in DMEM 5% FCS, 1 μM and 5 μM): significant increased in cell death, which was dose dependent
activity for VEGF II (comparison) (VEGF II): less activity
Id1, Id2, and Id3 expression (mRNA) [8]: significantly decreased
activity for AMP kinase (comparison) (AMP kinase): less activity

Source: patent publication US9505763B2, “Cancer treatment using BMP inhibitor” (Vanderbilt University, priority 2011, dated 2016)
